Data published in patent US9790233B2, “Compositions and methods of modulating 15-PGDH activity” (CASE WESTERN RESERVE UNIVERSITY, priority 2012, dated 2017).
Read-outs that look alike come from different tables or passages of the source.

Experiments:
Format in all cases: cell-based
[1] = test system: 15-PGDH luciferase fusion construct in V9m reporter cell line; assay: 15-PGDH-luciferase fusion gene reporter induction, V9m cells
[2] = test system: 15-PGDH luciferase fusion construct in LS174T reporter cell line; assay: 15-PGDH-luciferase fusion gene reporter induction, LS174T cells; settings: Homo sapiens
[3] = test system: 15-PGDH luciferase fusion construct in Vaco503 reporter cell line; assay: 15-PGDH-luciferase fusion gene reporter induction, V503 cells
[4] = read-out: V9M-SC3 Reporter activity ([…]) (%), […], Table 18, read-out: V9M-SC3 Reporter activity (2.5 μM) (%)
[5] = read-out: Ls174T-SC1 reporter activity, % ([…]), […], Table 18, read-out: Ls174T-SC1 reporter activity, % (2.5 μM)
[6] = read-out: Ls174T-SC1 reporter activity, % ([…]), […], Table 18, read-out: Ls174T-SC1 reporter activity, % (7.5 μM)
[7] = read-out: V503-3H9-7 reporter activity, % ([…]), […], Table 18, read-out: V503-3H9-7 reporter activity, % (2.5 μM)
[8] = read-out: V503-3H9-7 reporter activity, % ([…]), […], Table 18, read-out: V503-3H9-7 reporter activity, % (7.5 μM)
[9] = read-out: V9M reporter activity ([…]), […], % increased luciferase activity over basal level, 100 = doubling, read-out: V9M reporter activity (2.5 uM)
[10] = read-out: V9M-SC3 Reporter activity ([…]) (%), V9m reporter cells, […] compound, % induction of luciferase activity over basal level, read-out: V9M-SC3 Reporter activity (2.5 μM) (%)
[11] = read-out: V9M-SC3 Reporter activity ([…]), %, V9m reporter cells, […] compound, % induction of luciferase activity over basal level, read-out: V9M-SC3 Reporter activity (7.5 μM), %
[12] = read-out: Ls174T-SC1 reporter activity, % ([…]), LS174T reporter cells, […] compound, % induction of luciferase activity over basal level, read-out: Ls174T-SC1 reporter activity, % (2.5 μM)
[13] = read-out: Ls174T-SC1 reporter activity, % ([…]), LS174T reporter cells, […] compound, % induction of luciferase activity over basal level, read-out: Ls174T-SC1 reporter activity, % (7.5 μM)
[14] = read-out: V503-3H9-7 reporter activity, % ([…]), V503 reporter cells, […] compound, % induction of luciferase activity over basal level, read-out: V503-3H9-7 reporter activity, % (2.5 μM)
[15] = read-out: V503-3H9-7 reporter activity, % ([…]), V503 reporter cells, […] compound, % induction of luciferase activity over basal level, read-out: V503-3H9-7 reporter activity, % (7.5 μM)
[16] = V9m reporter cells, […] compound, % induction of luciferase activity over basal level

SMILES	activation at […] [1, 4]	activation at […] [2, 5]	activation at […] [2, 6]	activation at […] [3, 7]	activation at […] [3, 8]	other results
COc1ccc(N(CC(=O)Nc2cccnc2)S(=O)(=O)c2ccccc2)c(OC)c1 [310875−38−8]	-8.72%	27.7%	102%	64.1%	148%	–
COc1ccc(Cl)cc1N(CC(=O)Nc1cccnc1)S(=O)(=O)c1ccccc1 [328012−52−8]	-15.4%	128%	176%	243%	-4.89%	–
O=C(CN(c1ccccc1)S(=O)(=O)c1ccccc1)Nc1cccnc1 [331727−07−2]	28.2%	-7.53%	9.47%	8.13%	1.14%	–
COc1ccc(OC)c(N(CC(=O)NC2CCCCC2)S(=O)(=O)c2ccccc2)c1 [333446-93-8]	16.5%	12.9%	13.5%	53.8%	44.1%	–
COC(=O)c1ccccc1NC(=O)CN(c1cc(OC)ccc1OC)S(=O)(=O)c1ccccc1 [333449-58-4]	6.5%	-5.9%	-3.99%	50.1%	20.7%	–
COc1cccc(N(CC(=O)Nc2cccnc2)S(=O)(=O)c2ccccc2)c1 [335392−39−7]	-12.8%	-0.54%	14.3%	18.9%	21.9%	–
COc1ccc(OC)c(N(CC(=O)Nc2ccc(Cl)cc2)S(=O)(=O)c2ccccc2)c1 [339589-53-6]	-1%	51.2%	89.7%	200%	105%	–
COc1ccc(OC)c(N(CC(=O)Nc2ccc(Cl)c(Cl)c2)S(=O)(=O)c2ccccc2)c1 [339589-55-8]	-7%	-5.54%	8.81%	64%	52.5%	–
COc1ccccc1N(CC(=O)Nc1cccnc1)S(=O)(=O)c1ccccc1 [367929−80−4]	-27.8%	18.8%	-18%	-0.87%	-6.22%	–
COc1ccc(N(CC(=O)Nc2cccnc2)S(=O)(=O)c2ccccc2)cc1 [418783−65−0]	0.51%	-12.6%	5.81%	11.6%	6.68%	–
COc1ccc(OC)c(N(CC(=O)Nc2ccc(F)cc2)S(=O)(=O)c2ccccc2)c1 [426231-26-7]	10%	16.2%	22.1%	64%	113%	–
CCOc1ccc(N(CC(=O)Nc2cccnc2)S(=O)(=O)c2ccccc2)cc1 [428473−22−7]	-17.9%	-15.5%	10.6%	19.1%	19.8%	–
CCc1ccc(N(CC(=O)Nc2cccnc2)S(=O)(=O)c2ccccc2)cc1 [461439−84−9]	-30.3%	4.83%	-35%	1.57%	5.41%	–
COc1ccc(OC)c(N(CC(=O)Nc2cccnc2)S(=O)(=O)c2ccc(C)cc2)c1 [505072−23−1]	94.7%	101%	109%	242%	239%	–
COc1ccc(OC)c(N(CC(=O)Nc2cccnc2)S(C)(=O)=O)c1 [527699−66−7]	-31%	7.31%	-29.6%	38.8%	70.9%	–
CCc1ccccc1N(CC(=O)Nc1cccnc1)S(=O)(=O)c1ccccc1 [528580−69−0]	4.71%	11.5%	-4.81%	66%	110%	–
COc1ccc(OC)c(N(CC(=O)Nc2ccccc2C(N)=O)S(=O)(=O)c2ccccc2)c1 [530107-57-4]	59.5%	5.45%	8.27%	52.6%	84.4%	–
COc1ccc(OC)c(N(CC(=O)Nc2cccnc2)S(=O)(=O)c2ccc(OC)c(OC)c2)c1 [680599−58−0]	-5.29%	11.5%	-13.8%	16.7%	28.9%	–
O=C(CN(c1ccc2c(c1)OCCO2)S(=O)(=O)c1ccccc1)Nc1cccnc1 [701217-00-7]	-2.05%	-6.89%	-0.54%	20.1%	33.4%	–
O=C(CN(c1cc(Cl)ccc1Cl)S(=O)(=O)c1ccccc1)Nc1cccnc1 [833428−03−8]	-4.1%	25.1%	47.4%	96.4%	150%	–
CS(=O)(=O)c1sc2nc(-c3cccs3)cc(-c3ccccc3)c2c1N [SW033290, 2-(methylsulfonyl)-4-phenyl-6-(thiophen-2-yl)thieno[2,3-b]pyridin-3-amine]	–	–	–	–	–	activation at […] [1, 9]: -34.3%; activation at […] ([1]; read-out: V9M reporter activity ([…]), […], % increased luciferase activity over basal level, 100 = doubling, read-out: V9M reporter activity (7.5 uM)): -25.4%; activation at […] ([2]; read-out: LS174T reporter activity ([…]), […], % increased luciferase activity over basal level, read-out: LS174T reporter activity (2.5 uM)): -0.24%; activation at […] ([2]; read-out: LS174T reporter activity ([…]), […], % increased luciferase activity over basal level, read-out: LS174T reporter activity (7.5 uM)): -6.58%; activation at […] ([3]; read-out: V503 reporter activity ([…]), […], % increased luciferase activity over basal level, read-out: V503 reporter activity (2.5 uM)): 30.9%; activation at […] ([3]; read-out: V503 reporter activity ([…]), […], % increased luciferase activity over basal level, read-out: V503 reporter activity (7.5 uM)): 17.7%
Nc1c(C(=O)Cc2ccccc2)sc2nc(-c3cccs3)cc(-c3ccccc3)c12 [SW033292]	–	–	–	–	–	activation at […] [1, 9]: 1.51%
COc1ccc(OC)c(N(CC(=O)O)S(=O)(=O)c2ccccc2)c1 [SW122063]	–	–	–	–	–	activation at […] [1, 10]: 1.67%; activation at […] [1, 11]: 4.8%; activation at […] [2, 12]: 22.6%; activation at […] [2, 13]: 19.9%; activation at […] [3, 14]: 42.5%; activation at […] [3, 15]: 44.1%
COc1ccc(OC)c(N(CC(=O)N2CCCCC2)S(=O)(=O)c2ccccc2)c1 [SW131633]	–	–	–	–	–	activation at […] [1, 10]: 77.2%; activation at […] [1, 11]: 141%; activation at […] [2, 12]: 8.42%; activation at […] [2, 13]: 150%; activation at […] [3, 14]: 104%; activation at […] [3, 15]: -40.6%
COc1ccc(OC)c(N(CC(N)=O)S(=O)(=O)c2ccccc2)c1 [SW131635]	–	–	–	–	–	activation at […] [1, 10]: 11.4%; activation at […] [1, 11]: 15.1%; activation at […] [2, 12]: 111%; activation at […] [2, 13]: 14.1%; activation at […] [3, 14]: -37.7%; activation at […] [3, 15]: 14.4%
COc1ccc(OC)c(N(CC(=O)Nc2cccnc2)S(=O)(=O)c2ccc(C)cc2)c1 [SW202939]	–	–	–	–	–	activation at […] [1, 10]: 75.3%; activation at […] [1, 11]: 128%; activation at […] [2, 12]: 75.5%; activation at […] [2, 13]: 166%; activation at […] [3, 14]: 26.6%; activation at […] [3, 15]: 27.3%
COc1ccc(OC)c(N(CC(=O)Nc2ccccn2)S(=O)(=O)c2ccccc2)c1 [SW202941]	–	–	–	–	–	activation at […] [1, 10]: -10.9%; activation at […] [1, 11]: 2.57%; activation at […] [2, 12]: -23.8%; activation at […] [2, 13]: -43.2%; activation at […] [3, 14]: 75.9%; activation at […] [3, 15]: 83.5%
COc1ccc(OC)c(N(CC(=O)Nc2cccnc2)S(=O)(=O)c2ccccc2C)c1 [SW202943]	–	–	–	–	–	activation at […] [1, 10]: 7.12%; activation at […] [1, 11]: 17.8%; activation at […] [2, 12]: 33.1%; activation at […] [2, 13]: 55.7%; activation at […] [3, 14]: 72.3%; activation at […] [3, 15]: 147%
COc1ccc(OC)c(N(CC(=O)Nc2cncc(Cl)c2)S(=O)(=O)c2ccccc2)c1 [SW202990]	–	–	–	–	–	V9M-SC3 Reporter activity ([…]) (%) [1, 16]: 3.57%; V9M-SC3 Reporter activity ([…]), % [1, 16]: 23.49%
